Results reported in patent EP4755880A1, “SUBSTITUTED NITROGEN-CONTAINING BICYCLIC COMPOUND AND USE THEREOF” (Sunshine Lake Pharma Co., Ltd., priority 2023, dated 2025).

Assays:
[1] = test system: MDA-MB-436 cells; experiment: Inhibition of proliferation of MDA-MB-436 cells (CellTiter-Glo); type: cell-based; conditions: Homo sapiens, MDA-MB-436, 168 h, 7 days incubation
In short: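 MDA-MB-436 cells seeded at 500-1000 cells/well, allowed to attach overnight, then treated with 9 concentrations from 10000 to 0.152 nM final (4-fold steps) in triplicate for 7 days at 37°C, 5% CO2. Viability by CellTiter-Glo luminescence; IC50 from fitted curve.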

[2] = Pharmacokinetics in mice after intravenous injection or gavage; conditions: BALB/c, mouse, plasma
Method: (§1) The compounds of the present invention were administered to test animals in the form of 5% DMSO + 30% PEG400 + 65% physiological saline, 10% DMSO + 10% Kolliphor HS15 + 80% Saline, 10% DMSO + 89% (25% SBE-B-CD) + (2% HCl), 20% PEG400 + 80% sterile water for injection, or 10% DMA+ 10% HS15 + 30% PEG400 + 50% sterile aqueous solution for injection. Animals were fasted for 12 hours before administration but had free access to water. For the intravenous administration group, the dose was 1 mg/kg. Blood samples (approximately 0.15 mL) were collected intravenously at the following time points after administration: 0.083, 0.25, 0.5, 1.0, 2.0, 4.0, 6.0, 8.0 and 24 h (dogs) or 0.083, 0.25, 0.5, 1.0, 2.0, 5.0, 7.0 and 24 h (mice and rats) or 0.083, 0.25, 0.5, 1.0, 2.0, 6.0, 8.0 and 24 h (monkeys). EDTA-K2 was pre-added to the blood collection tube as an anticoagulant. The blood samples were centrifuged at 12,000 rpm for 2 minutes, and plasma was collected and stored at -20 °C or - 70 °C. For the gavage administration group, the dosage was 1 mg/kg (mice, dogs, and monkeys) or 5 mg/kg (rats). After administration, venous blood samples (approximately 0.15 mL) were collected at the following time points: 0.25, 0.5, 1.0, 2.0, 4.0, 6.0, 8.0, and 24 h (dogs) or 0.25, 0.5, 1.0, 2.0, 5.0, 7.0, and 24 h (mice and rats) or 0.25, 0.5, 1.0, 2.0, 6.0, 8.0, and 24 h (monkeys). EDTA-K2 was pre-added to the blood collection tube as an anticoagulant. The blood samples were centrifuged at 12,000 rpm for 2 minutes, and plasma was collected and stored at -20 °C or -70 °C.
(§2) The collected plasma samples were processed (frozen plasma was thawed at room temperature, vortexed for 15 s to mix, 10-20 µL of plasma was taken, 120-150 µL of acetonitrile solution containing internal standard was added, vortexed for 5 min to mix, centrifuged at 4,000 rpm for 5 min, 100 µL of supernatant was taken, and 120-150 Ml/water (v/v = 1/1) was added and mixed). The concentration of compounds in the plasma was then analyzed by LC-MS/MS.

[3] = molecular target: PARP1 (Homo sapiens, UniProt P09874); experiment: Inhibition of PARP1 enzyme activity (ELISA, chemiluminescence); type: biochemical; conditions: for IC50: ELISA, histone-coated plate, NAD+, 60 min at 25 °C; for Selectivity PARP2/PARP1: ratio of PARP2 IC50 to PARP1 IC50
Chain of PARP1 (P09874 whole entry): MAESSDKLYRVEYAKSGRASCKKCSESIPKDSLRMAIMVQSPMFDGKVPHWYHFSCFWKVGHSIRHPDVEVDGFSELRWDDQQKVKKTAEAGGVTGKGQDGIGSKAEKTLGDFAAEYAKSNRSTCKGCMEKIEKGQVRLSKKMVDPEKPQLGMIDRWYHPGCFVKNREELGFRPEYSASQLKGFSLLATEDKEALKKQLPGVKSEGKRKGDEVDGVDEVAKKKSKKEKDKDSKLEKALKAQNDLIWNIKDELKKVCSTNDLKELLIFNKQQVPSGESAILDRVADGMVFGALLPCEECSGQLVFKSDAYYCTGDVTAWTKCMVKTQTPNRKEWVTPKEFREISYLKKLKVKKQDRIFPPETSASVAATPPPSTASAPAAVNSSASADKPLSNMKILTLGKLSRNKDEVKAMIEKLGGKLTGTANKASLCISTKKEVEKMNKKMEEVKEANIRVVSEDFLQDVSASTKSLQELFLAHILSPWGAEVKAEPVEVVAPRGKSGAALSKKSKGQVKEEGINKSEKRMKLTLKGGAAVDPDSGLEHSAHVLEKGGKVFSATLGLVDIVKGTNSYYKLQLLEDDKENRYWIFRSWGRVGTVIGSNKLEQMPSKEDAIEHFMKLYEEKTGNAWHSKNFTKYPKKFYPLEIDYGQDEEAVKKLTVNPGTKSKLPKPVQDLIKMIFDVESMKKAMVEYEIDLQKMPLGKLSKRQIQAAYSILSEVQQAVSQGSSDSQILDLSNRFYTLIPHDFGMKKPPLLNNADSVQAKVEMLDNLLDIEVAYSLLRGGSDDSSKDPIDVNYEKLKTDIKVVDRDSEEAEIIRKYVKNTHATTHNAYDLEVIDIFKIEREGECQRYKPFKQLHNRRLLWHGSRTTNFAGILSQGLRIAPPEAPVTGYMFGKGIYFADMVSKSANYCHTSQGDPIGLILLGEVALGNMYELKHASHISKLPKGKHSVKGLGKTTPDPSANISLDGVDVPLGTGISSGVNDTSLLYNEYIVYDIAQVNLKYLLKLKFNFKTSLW

[4] = molecular target: PARP2 (Homo sapiens, UniProt Q9UGN5); experiment: biochemical;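 also: PARP2 enzyme ELISA on histone-coated plates, Strep-HRP detection with chemiluminescence read-out, 10 min compound preincubation with enzyme, inhibition scaled between Max and Min signal controls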
Chain of PARP2 (Q9UGN5 whole entry): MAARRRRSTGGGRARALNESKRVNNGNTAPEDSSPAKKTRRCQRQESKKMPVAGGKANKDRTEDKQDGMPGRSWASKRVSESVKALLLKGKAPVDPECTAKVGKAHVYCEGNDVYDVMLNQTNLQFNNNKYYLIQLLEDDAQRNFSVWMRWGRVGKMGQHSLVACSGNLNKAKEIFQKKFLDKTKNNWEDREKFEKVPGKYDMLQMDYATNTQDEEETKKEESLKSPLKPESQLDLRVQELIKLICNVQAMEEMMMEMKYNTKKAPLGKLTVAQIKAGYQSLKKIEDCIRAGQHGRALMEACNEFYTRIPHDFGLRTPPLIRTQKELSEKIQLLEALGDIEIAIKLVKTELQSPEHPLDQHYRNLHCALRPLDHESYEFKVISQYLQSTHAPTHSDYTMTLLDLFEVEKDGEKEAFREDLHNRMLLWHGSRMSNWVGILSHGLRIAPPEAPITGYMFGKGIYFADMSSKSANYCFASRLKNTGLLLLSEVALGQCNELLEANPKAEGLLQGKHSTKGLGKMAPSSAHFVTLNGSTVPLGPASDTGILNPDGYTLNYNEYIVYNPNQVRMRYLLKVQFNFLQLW

[5] = test system: DLD-1 BRCA2(-/-) cells; experiment: Inhibition of proliferation of DLD-1 BRCA2(-/-) cells (CTG method); type: cell-based; conditions: Homo sapiens, DLD-1, 168 h; 7 days incubation, CellTiter-Glo
In short: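 DLD-1 BRCA2(-/-) cells, 1,000 per well, attached overnight, then exposed to compound at final 10000 to 0.152 nM (4-fold series) in triplicate for 7 days at 37 °C, 5% CO2. Viability by CellTiter-Glo luminescence; IC50 for proliferation inhibition from a fitted curve.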

[6] = Pharmacokinetics in SD rats after intravenous injection or gavage; conditions: rat, plasma
Method: as §1, §2
(§3) Table D Pharmacokinetic parameters of compounds of the present invention in SD rats

[7] = in vivo; conditions: BALB/c, mouse
Method: as §1, §2

[8] = in vivo; conditions: SD, rat
Method: as §1, §2, §3

Structure (SMILES) | IC50 [1] | AUC(0-t) ([2]; iv, 2 mg/kg) | Cmax ([2]; iv, 2 mg/kg) | half-life ([2]; iv, 2 mg/kg) | AUC(0-t) ([2]; po, 5 mg/kg) | Cmax ([2]; po, 5 mg/kg) | half-life ([2]; po, 5 mg/kg) | IC50 [3] | Selectivity PARP2/PARP1 [3] | IC50 [4] | IC50 [5] | AUC(0-t) ([6]; iv, 1 mg/kg) | Cmax ([6]; iv, 1 mg/kg) | half-life ([6]; iv, 1 mg/kg) | AUC(0-t) ([6]; po, 5 mg/kg) | Cmax ([6]; po, 5 mg/kg) | half-life ([6]; po, 5 mg/kg) | other results
Cc1nc2c(OC(F)F)cc(CN3CCN(c4ccc(C(=O)NC5CC5)nc4F)CC3)cc2[nH]c1=O [Example 46, N-cyclopropyl-5-(4-((8-(ditluoromethoxy)-2-methyl-3-oxo-3,4-dihydroquinoxalin-6-yl)methyl)piperazin-1-yl)-6-fluoropicolinamide] | 0.2 nM | 11300 ng·h/mL | 6460 ng/mL | 1.6 h | 25300 ng·h/mL | 8750 ng/mL | 2 h | 2.5 nM | 25.0 | 64 nM | 3.2 nM | 4500 ng·h/mL | 1410 ng/mL | 3.2 h | 21200 ng·h/mL | 2150 ng/mL | 3.4 h | –
CC#Cc1cc(CN2CC=C(c3ccc(C(=O)NC4CC4)nc3F)CC2)c(F)c2[nH]c(=O)c(C)nc12 [Example 41, N-cyclopropyl-2-fluoro-1'-((5-fluoro-2-methyl-3-oxo-8-(prop-1-yn-1-yl)-3,4-dihydroquinoxalin-6-yl)methyl)-1',2',3',6'-tetrahydro-[3,4'-bipyridine]-6-carboxamide] | 11.8 nM | 2230 ng·h/mL | 3150 ng/mL | 1.3 h | 4630 ng·h/mL | 2720 ng/mL | 1.9 h | 3.1 nM | 3254.4 | > 10000 nM | 37.4 nM | 1670 ng·h/mL | 1720 ng/mL | 2.1 h | 7870 ng·h/mL | 3130 ng/mL | 2.8 h | –
CC#Cc1cc(CN2CC=C(c3ccc(C(=O)NC)nc3F)CC2)cc2[nH]c(=O)c(C)nc12 [Example 12, 2-fluoro-N-methyl-1'-((2-methyl-3-oxo-8-(prop-1-yn-1-yl)-3,4-dihydroquinoxalin-6-yl)methyl)-1',2',3',6'-tetrahydro-[3,4'-bipyridine]-6-carboxamide] | 0.6 nM | – | – | – | – | – | – | – | – | – | 1.9 nM | – | – | – | – | – | – | AUC(0-t) ([7]; iv, 2 mg/kg): 1430 ng·h/mL; Cmax ([7]; iv, 2 mg/kg): 1630 ng/mL; half-life ([7]; iv, 2 mg/kg): 1.4 h; AUC(0-t) ([7]; po, 5 mg/kg): 4200 ng·h/mL; Cmax ([7]; po, 5 mg/kg): 2110 ng/mL; half-life ([7]; po, 5 mg/kg): 1.9 h; AUC(0-t) ([8]; iv, 1 mg/kg): 1260 ng·h/mL; Cmax ([8]; iv, 1 mg/kg): 897 ng/mL; half-life ([8]; iv, 1 mg/kg): 2 h; AUC(0-t) ([8]; po, 5 mg/kg): 3770 ng·h/mL; Cmax ([8]; po, 5 mg/kg): 922 ng/mL; half-life ([8]; po, 5 mg/kg): 2.4 h
CNC(=O)c1ccc(N2CCN(Cc3cc(-c4ccccc4)c4nc(C)c(=O)[nH]c4c3)CC2)c(F)n1 [Example 2, 6-fluoro-N-methyl-5-(4-((2-methyl-3-oxo-8-phenyl-3,4-dihydroquinoxalin-6-yl)methyl)piperazin-1-yl)picolinamide] | 20.2 nM | 2870 ng·h/mL | 942 ng/mL | 3.1 h | 8560 ng·h/mL | 1450 ng/mL | 3.9 h | 1.5 nM | 2084.7 | 3130 nM | 22.9 nM | 1090 ng·h/mL | 534 ng/mL | 2.1 h | 5610 ng·h/mL | 719 ng/mL | 3.4 h | –
CNC(=O)c1ccc(C2=CCN(Cc3cc(OC(F)F)c4nc(C)c(=O)[nH]c4c3)CC2)c(F)n1 [Example 15, 1'-((8-(difluoromethoxy)-2-methyl-3-oxo-3,4-dihydroquinoxalin-6-yl)methyl)-2-fluoro-N-methyl-1',2',3',6'-tetrahydro-[3,4'-bipyridine]-6-carboxamide] | 1.3 nM | 75300 ng·h/mL | 13600 ng/mL | 3.8 h | 189000 ng·h/mL | 19000 ng/mL | 4.2 h | 0.6 nM | 248.4 | 137 nM | 4.1 nM | 6060 ng·h/mL | 1560 ng/mL | 4.1 h | 31600 ng·h/mL | 3630 ng/mL | 4.5 h | –
CC#Cc1cc(CN2CCN(c3ccc(C(=O)NC4CC4)nc3F)CC2)cc2[nH]c(=O)c(C)nc12 [Example 35, N-cyclopropyl-6-fluoro-5-(4-((2-methyl-3-oxo-8-(prop-1-yn-1-yl)-3,4-dihydroquinoxalin-6-yl)methyl)piperazin-1-yl)picolinamide] | 0.2 nM | 2750 ng·h/mL | 3750 ng/mL | 1.2 h | 4860 ng·h/mL | 2760 ng/mL | 1.5 h | 2 nM | 44.3 | 90.2 nM | 13 nM | 5680 ng·h/mL | 2230 ng/mL | 2.4 h | 48300 ng·h/mL | 4970 ng/mL | 2.8 h | –
CNC(=O)c1ccc(N2CCN(Cc3cc(OC(C)C)c4nc(C)c(=O)[nH]c4c3)CC2)c(F)n1 [Example 3, 6-fluoro-5-(4-((8-isopropoxy-2-methyl-3-oxo-3,4-dihydroquinoxalin-6-yl)methyl)piperazin-1-yl)-N-methylpicolinamide] | 7.5 nM | 2140 ng·h/mL | 1220 ng/mL | 1.9 h | 4890 ng·h/mL | 1780 ng/mL | 2.4 h | 2.67 nM | 53.2 | 142 nM | 4.6 nM | 1990 ng·h/mL | 653 ng/mL | 3.4 h | 13100 ng·h/mL | 1400 ng/mL | 3.7 h | –
CNC(=O)c1ccc(N2CCN(Cc3cc(OC(F)F)c4nc(C)c(=O)[nH]c4c3)CC2)c(F)n1 [Example 13, 5-(4-((8-(difluoromethoxy)-2-methyl-3-oxo-3,4-dihydroquinoxalin-6-yl)methyl)piperazin-1-yl)-6-fluoro-N-methylpicolinamide] | 3.5 nM | 17000 ng·h/mL | 6560 ng/mL | 1.9 h | 33900 ng·h/mL | 11500 ng/mL | 2.9 h | 0.713 nM | 256.6 | 183 nM | 1.3 nM | 7720 ng·h/mL | 2730 ng/mL | 3.2 h | 57900 ng·h/mL | 5810 ng/mL | 4.4 h | –
CC#Cc1cc(CN2CCN(c3ccc(C(=O)NC)nc3F)CC2)cc2[nH]c(=O)c(C)nc12 [Example 7, 6-fluoro-N-methyl-5-(4-((2-methyl-3-oxo-8-(prop-1-yn-1-yl)-3,4-dihydroquinoxalin-6-yl)methyl)piperazin-1-yl)picolinamide] | 10.7 nM | 2140 ng·h/mL | 1300 ng/mL | 1.6 h | 6370 ng·h/mL | 3230 ng/mL | 1.8 h | 1.3 nM | 362.1 | 472 nM | 2.5 nM | 3370 ng·h/mL | 1170 ng/mL | 3.4 h | 22400 ng·h/mL | 2600 ng/mL | 3.3 h | –
